Results from US20100273714A1, “PEPTIDE COMPOUNDS FOR TREATING REFRACTORY STATUS EPILEPTICUS” (SCHWARZ PHARMA AG, priority 2006, published 2010).

What was measured:
[1] = tested on: status epilepticus in the rat lithium/pilocarpine model; assay: Lithium/pilocarpine model of status epilepticus; type: in vivo, Rats
[2] = tested on: self-sustaining status epilepticus (SSSE) in perforant path stimulated rats; settings: Mazarati et al. 1999, cited from earlier work; for effectiveness against SSSE, delayed administration (in words): administration delayed / later in status epilepticus; for effectiveness against SSSE, early administration (in words): given before or at onset of SSSE / within the first 10 min of status epilepticus
[3] = tested on: self-sustaining status epilepticus (SSSE) in perforant path stimulated rats; assay: Perforant path stimulation model of self-sustaining status epilepticus (acute seizure activity); type: in vivo, Male Wistar rats
Method: Male Wistar rats were implanted with a stimulating electrode into the angular bundle of the perforant path and a recording electrode into the granule cell layer of the dentate gyrus. Perforant path stimulation (PPS) was delivered for 30 or 60 minutes with the following parameters: 10 s, 20 Hz trains of 1 ms, 30 V pulses delivered every minute together with continuous 2 Hz stimulation with the same parameters.
(§1) The following indices were used to quantify seizure activity: cumulative seizure time (duration of SSSE, subtracting interictal time) and the number of seizure episodes. In addition the number of spontaneous seizures was measured 6 months following induction of SSSE in order to assess status epilepticus induced epileptogenesis.

[4] = tested on: status epilepticus induced epileptogenesis (spontaneous recurrent seizures) in perforant path stimulated rats; assay: Long term (disease-modifying) effects: spontaneous recurrent seizures at least 6 months after SSSE induction, EEG/video monitoring; type: in vivo; settings: for spike frequency: early treatment, controls 9534±1114; for number of spontaneous recurrent seizures (SRSs) per week: treatment 10 min after perforant path stimulation, vehicle 110±8; for number of seizures per week: not statistically significant
Method: as §1
SSSE was induced in rats as described in Example 1. After SSSE induction, and at least 6 months wait (“silent period”) the animals were placed in EEG/telemetry/videotape continuously for two weeks for chronic EEG and video monitoring, but the second week, which was more remote from anaesthesia and surgery, was used to calculate seizure frequency (24 hours/day×7). Electrographic seizures were captured by the Harmony software, and were confirmed by offline manual review of the EEG and videotapes. The following indices were counted: total number of spikes of seizures for 7 days of observation, mean seizure duration, light/dark distribution.

[5] = 50 mg/kg i.p., treatment initiated 40 minutes after PPS, FIG. 1
[6] = 50 mg/kg, administered 40 min after onset of SSSE
[7] = given 10 min after perforant path stimulation, doses 10 mg/kg and above

CN1C(=O)CN=C(c2ccccc2)c2cc(Cl)ccc21 [diazepam]
efficacy of diazepam alone (in words) ([1]; administered 15 min after onset of status epilepticus): ineffective
effectiveness against SSSE, delayed administration (in words) [2]: lost their effectiveness
effectiveness against SSSE, early administration (in words) [2]: highly effective

COC[C@@H](NC(C)=O)C(=O)NCc1ccccc1 [lacosamide, (R)-2-acetamido-N-benzyl-3-methoxypropionamide]
cumulative seizure duration (in words) [3, 5]: substantial reduction
seizure frequency (in words) [3, 5]: substantial reduction
reduction in cumulative seizure duration [3, 6]: 40%
reduction in seizure frequency [3, 6]: 40%
anticonvulsant effect (in words) ([3]; given 10 min after perforant path stimulation): effective as an anticonvulsant
cumulative time spent seizing after treatment (in words) [3, 7]: reduced
number of seizures (in words) [3, 7]: reduced the number of seizures
number of seizures (in words) ([3]; late treatment, 40 min after perforant path stimulation): non-significant reduction
motor seizure symptoms (in words) ([1]; 50 mg/kg, 10 minutes after onset of status epilepticus): reduced motor seizure symptoms
spike frequency ([4]; 3 mg/kg group): 7557±1945 spikes/week
number of spontaneous recurrent seizures (SRSs) per week ([4]; 3 mg/kg): 85±5 SRS/week
number of spontaneous recurrent seizures (SRSs) per week ([4]; 10 mg/kg): 66±8 SRS/week
number of seizures per week ([4]; 10 mg/kg, treatment 40 min after perforant path stimulation, control 110±8): 100±7 seizures per week
spike frequency ([4]; 30 mg/kg group): 2969±542 spikes/week
median number of seizures ([4]; 30 mg/kg group, treatment 40 min after perforant path stimulation): 0
number of spontaneous recurrent seizures (SRSs) per week ([4]; 30 mg/kg): 42±8 SRS/week
number of seizures per week ([4]; 30 mg/kg, treatment 40 min after perforant path stimulation, control 110±8): 67±67 seizures per week
spike frequency ([4]; 50 mg/kg group): 2588±370 spikes/week
median number of seizures ([4]; 50 mg/kg group, treatment 40 min after perforant path stimulation): 0
number of spontaneous recurrent seizures (SRSs) per week ([4]; 50 mg/kg): 34±6 SRS/week
number of seizures per week ([4]; 50 mg/kg, treatment 40 min after perforant path stimulation, control 110±8): 45±29 seizures per week
percentage of rats developing chronic epilepsy / spontaneous recurrent seizures ([4]; 30-50 mg/kg, 6 months after induction of SSSE, vehicle 100%): 30%
reduction of number of seizures per week (seizure frequency) ([4]; 30-50 mg/kg, after six months, vehicle average 110 seizures per week): 60%
spike frequency ([4]; "mg/kg" group (dose not given)): 3536±380 spikes/week
number of animals showing spontaneous recurrent seizures ([4]; treatment 40 min after perforant path stimulation, two higher dosage groups combined, control 6/6, p<0.05): 3/9
seizure numbers per week ([4]; treatment 40 min after perforant path stimulation, two highest treatment groups combined, control 110±8): 55±32 seizures per week

O=C1NC(=O)C(c2ccccc2)(c2ccccc2)N1 [phenytoin]
effectiveness against SSSE, delayed administration (in words) [2]: lost their effectiveness
effectiveness against SSSE, early administration (in words) [2]: highly effective
